The record followed here is ChEMBL document CHEMBL1157048, “Synthesis and in vitro activity of limonene derivatives against Leishmania and Trypanosoma” (Eur J Med Chem, 2010).

Molecules are shown by their SMILES.

One data set deals with Leishmania braziliensis. The experiment in a line: Antileishmanial activity against Leishmania (Viannia) braziliensis promastigotes. The format is functional, organism-based.
The subject of data set [1] is Trypanosoma cruzi. The experiment in a line: Antitrypanosomal activity against Trypanosoma cruzi Tulahuen 2 assessed as inhibition of epimastigotes growth at 50 uM. To be noted: read-out: GI. Type of data set: functional.
Another data set has as its system Leishmania amazonensis. The data set can be described thus: Antileishmanial activity against Leishmania amazonensis promastigotes after 48 hrs. The format is functional, organism-based.
The nature of data set [2]: Selectivity index, ratio of IC50 for rhesus monkey LLC-MK2 cells to IC50 for Leishmania amazonensis promastigotes. The format is toxicity, cell-based. Particulars: read-out: Ratio IC50.
For data set [3], the system named is Trypanosoma cruzi. The experiment in a line: Antitrypanosomal activity against Trypanosoma cruzi Tulahuen 2 assessed as inhibition of epimastigotes growth. Type of data set: functional, organism-based.
Data set [4] can be described thus: Selectivity index, ratio of IC50 for rhesus monkey LLC-MK2 cells to IC50 for Leishmania (Viannia) braziliensis promastigotes. Type of data set: toxicity, cell-based. To be noted: read-out: Ratio IC50.
A further data set deals with LLC-MK2. The experiment in a line: Cytotoxicity against rhesus monkey LLC-MK2 cells after 48 hrs. The format is cell-based. To be noted: Macaca mulatta, LLC-MK2, 48 h.
The nature of data set [5]: Selectivity index, ratio of IC50 for rhesus monkey LLC-MK2 cells to IC50 for Trypanosoma cruzi Tulahuen 2 epimastigotes. Type of data set: toxicity, cell-based. Particulars: read-out: Ratio IC50.
A further data set deals with Leishmania sp. The experiment in a line: Antileishmanial activity against Leishmania sp. by MTT assay. The format is functional, organism-based. A general note: Tetrazolium dyes change colour on reduction, which living cells bring about.

Regarding `CC1=CC[C@H](C(C)CCNc2ccccn2)CC1` (some centres undefined), 27 µM corresponded to half-maximal inhibition in the data set on Leishmania braziliensis (IC50).
For `CCCNCCC(C)[C@H]1CC=C(C)CC1` (mixture of isomers), the IC50 with Leishmania braziliensis was 17.2 µM; in the data set with Leishmania amazonensis, 53.5 µM; with Trypanosoma cruzi [3], over 50 µM; in the data set on LLC-MK2, 192 µM. Moreover, in the data set with Trypanosoma cruzi [1], the inhibition of growth at 50 µM worked out at 21%. Also, the selectivity ratio in data set [2] stood at 3.6; in data set [4], 10.
On to `CC1=CC[C@H](C(C)CCNC(C)C)CC1` (mixture of isomers), for which, in the data set on Leishmania braziliensis, the IC50 turned out to be 254 µM.
Consider `CC1=CC[C@H](C(C)CCNCc2ccccc2)CC1` (mixture of isomers), for which the values for the IC50 in the data set with Leishmania braziliensis and in the data set with Trypanosoma cruzi [3] were 258 µM and 50 µM, respectively. In addition, the inhibition of growth at 50 µM in the data set on Trypanosoma cruzi [1] was 53.5%.
Taken in the same sequence, the figures for `CC1=CC[C@H](C(C)CCN2CCOCC2)CC1` (mixture of isomers) were 1030 µM, over 50 µM and 20.7%.
Taken in the same sequence, the figures for `CC1=CC[C@H](C(C)CCN2CCNCC2)CC1` (mixture of isomers) were 270 µM, 19.2 µM and 82.4%.
For the molecule `CCCN(CCC(C)[C@H]1CC=C(C)CC1)S(=O)(=O)c1ccc(C)cc1` (mixture of isomers), the IC50 in the data set on Leishmania braziliensis is 12.1 µM; in the data set on Leishmania amazonensis, 196 µM; with LLC-MK2, over 1010 µM. In addition, the values for the selectivity ratio in [2] and in data set [4] were over 5.2 and 10, respectively.
Regarding `CC1=CC[C@H](C(C)CCNc2ccccc2)CC1` (mixture of isomers), the IC50 turned out to be 11.5 µM in the data set on Leishmania braziliensis, 89.8 µM in the data set on Leishmania amazonensis, 29.5 µM with Trypanosoma cruzi [3] and 312 µM in the data set with LLC-MK2. Also, the inhibition of growth at 50 µM in the data set with Trypanosoma cruzi [1] was found to be 70.5%. Further, the values for the selectivity ratio in data set [5], in data set [2] and in [4] were 10.4, 3.5 and 10, respectively.
Molecule `CC1=CC[C@H](C(C)CCNc2ccc(Cl)cc2)CC1` (mixture of isomers) showed an IC50 in the data set on Leishmania braziliensis of 58.4 µM.
Still for that read-out and setting: for `COc1ccc(NCCC(C)[C@H]2CC=C(C)CC2)cc1` (mixture of isomers) the value was 57.6 µM; for `CC1=CC[C@H](C(C)CCNc2ccc(C)cc2)CC1` (mixture of isomers), 28 µM.
On to `CC1=CC[C@H](C(C)CCNCc2ccco2)CC1` (mixture of isomers), for which the concentration for half-maximal inhibition (IC50) is 35.6 µM in the data set with Leishmania braziliensis and 50 µM in the data set with Trypanosoma cruzi [3]. Also, in the data set with Trypanosoma cruzi [1], the inhibition of growth at 50 µM is 51.4%.
For `CC1=CC[C@H](C(C)CCNc2cccc(C(F)(F)F)c2)CC1` (mixture of isomers), the IC50 in the data set on Leishmania braziliensis amounted to 84.6 µM.
For the molecule `CC1=CC[C@H](C(C)CCN(C)c2ccccc2)CC1` (mixture of isomers), the IC50 in the data set with Leishmania braziliensis was 54.5 µM; in the data set with Trypanosoma cruzi [3] it was over 50 µM. In addition, in the data set with Trypanosoma cruzi [1], the inhibition of growth at 50 µM is 0%.
On to `CC1=CC[C@H](C(C)CCNCCO)CC1` (mixture of isomers), for which the IC50 in the data set with Leishmania braziliensis is 23.2 µM; in the data set with Leishmania amazonensis, 174 µM; in the data set on Trypanosoma cruzi [3], over 50 µM; in the data set on LLC-MK2, 587 µM. Also, in the data set with Trypanosoma cruzi [1], the inhibition of growth at 50 µM came to 41.8%. The values for the selectivity ratio in data set [2] and in [4] were 3.4 and 10, respectively.
Turning to `C=C(C)[C@H]1CC=C(C)CC1` [D-LIMONENE], the figures for the IC50 in the data set with Leishmania sp., in the data set on Leishmania braziliensis and with Trypanosoma cruzi [3] were 185 µM, 876 µM and over 50 µM, respectively. Further, in the data set on Trypanosoma cruzi [1], the inhibition of growth at 50 µM was 0%.
As for `CC1CS(=O)(=O)CCN1/N=C/c1ccc([N+](=O)[O-])o1` (centres undefined) [NIFURTIMOX], the inhibition of growth at 50 µM in the data set on Trypanosoma cruzi [1] was 100%.
Regarding `N=C(N)c1ccc(OCCCCCOc2ccc(C(=N)N)cc2)cc1` [PENTAMIDINE], in the data set on Leishmania braziliensis, the half-inhibitory concentration (IC50) was 48.5 µM.

By IC50 is commonly meant the midpoint of a concentration-inhibition curve.
